# Laboratory results: patent US20040208864A1, “Methods of improving health-related quality of life in individuals with systemic lupus erythematosus” (priority 2002, published 2004)
# Several values for one entry are separate records, joined by “and”; a condition that tells them apart may be missing. Equal entries are not always repeated. Entries after “also recorded” stand apart in the source; their conditions may differ. Where two headings read alike, the source gives them in different places.
# Assays:
# SLE patients = assay: SF-36 health-related quality of life, Phase II/III (90-05) trial of LJP 394 vs placebo; type: in vivo, human; details: for Longitudinal Role Emotional and MCS scores vs placebo: available data only
# Protocol: Patients were excluded if they had evidence of a renal flare within three months of screening; were receiving prednisone or prednisone equivalent >20 mg/day, azathioprine >200 mg/day, methotrexate >25 mg/wk and/or cyclophosphamide at any dose within three months of screening; or a serum creatinine level ≧2.5 mg/dL. The study was conducted in the US and Europe according to Good Clinical Practices and all patients provided voluntary informed consent.
# A pharmacodynamic assay has been developed to measure the binding affinity of patients' anti-dsDNA antibodies to LJP 394 (Sem D S, et al. (1999) Arch Biochem Biophys 372:62-8; McNeeley Pa., et al. (2001) Lupus 10:526-532). The assay measures the binding of the total serum immunoglobulin G [IgG] fraction to the dsDNA epitope on LJP 394. Binding of IgG to the LJP 394 epitope is measured using surface plasmon resonance and the concentration required to reach half maximal binding is determined. This concentration defines the apparent Kd′ of the binding interaction and reflects the titer-weighted average affinity of the patient's IgG fraction for the LJP 394 epitope. Using this assay, patients were segregated into “high affinity” and “low affinity” subgroups. The segregation value was selected by comparing the affinity measured before exposure to LJP 394 with that following 16 weekly treatments with LJP 394 100 mg or placebo. The high-affinity (HA) population was defined as those patients with antibody binding affinities [Kd′]≦0.8 mg/mL pre-treatment.
# In this double-blind, randomized controlled, multicenter trial, intravenously administered LJP 394 was compared with placebo in SLE patients with prior renal involvement. Patients were randomized to receive LJP 394 100 mg as a 2 ml bolus intravenous injection on a weekly basis or placebo for 76 weeks. After initiation of the trial, the protocol was amended to include 8 week off treatment periods alternating with 12 weekly treatments with 50 mg (1 ml bolus injection) LJP 394 or placebo. The first 16 weeks, when patients received 100 mg LJP 394 or placebo weekly, was considered the ‘induction period’, followed by ‘maintenance,’ when patients alternated 8 off and 12 weeks on treatment. The 20-week cycles were to be repeated three times for a total of 60 weeks.
# The primary endpoint was the time to a documented renal flare, defined as reproducible increases from baseline in 24-hr proteinuria or serum creatinine >20% or at least 0.3 mg/dL, whichever was greater, accompanied by proteinuria, hematuria and/or red cell casts; or new onset or reproducible increase in hematuria accompanied by either an increase in 24-hr proteinuria or new red cell casts. Secondary outcome measures included the number of renal flares, time to institution of therapy with high dose corticosteroids (HDCC) and/or cyclophosphamide, incidence of treatment with HDCC and/or cyclophosphamide, and number of major SLE flares. HDCC was defined as an increase in oral, intravenous or intramuscular prednisone (or prednisone equivalent) greater than or equal to 15 mg per day from baseline to a dose greater than 20 mg per day for more than two days or any dose exceeding 200 mg in a single day. Topical, intra-articular, intra-lesional, or intra-ocular corticosteroid administration was excluded.
# As a secondary objective, the SF-36 was included in the protocol for analysis, on an exploratory basis, to evaluate and interpret changes in health-related quality of life with active treatment compared with placebo. An additional secondary objective was to evaluate changes in health-related quality of life before and after a documented renal flare, with or without prior treatment with HDCC. The SF-36 was administered at baseline and weeks 16, 24, 36, 44, 56, 64, 76, or at early treatment withdrawal. All patients with a baseline and at least one post treatment health-related quality of life assessment were included in the analyses. […]
# anti-dsDNA antibodies = assay: Anti-dsDNA antibody levels (Farr assay), Phase III study; type: in vivo, human; details: for Frequency of patients with sustained reductions in anti-dsDNA antibodies compared with placebo: Phase III (90-09), sustained = at least 10% below baseline for at least 2/3 of values
# Protocol: Two studies (Phase II/III or 90-05, and Phase III or 90-09) were conducted as described in Examples 1-2 and 12. […] Patients completed the SF-36® assessment at entry, followed by three additional time points in the trial depending on how long they participated. […] The Phase II/III trial enrolled 198 lupus patients with high-affinity antibodies who were treated for up to 18 months.
# Patients selection, duration of treatment, assay type were in these studies are further detailed in Table 5. All laboratory values were determined at a central laboratory. Baseline anti-dsDNA antibody levels were calculated as the mean of the last 2 determinations prior to initial administration of the study drug. Baseline values for all other laboratory measures were determined immediately before administration of the study drug. The upper limit of normal for the anti-dsDNA antibody assay at the central laboratory was 5 IU/ml.
# (Sustained reduction of 10% was based on the percent coefficient of variation of the Farr assay as reported in the assay labeling. At least ⅔ of observations were required to meet this criterion to assure the majority of values were represented for a patient.) All anti-dsDNA antibody values collected were used to determine if a patient met the criterion for sustained reduction. Anti-dsDNA antibody values subsequent to HDCC were considered treatment failures and these values were imputed to have a value equivalent to baseline.
# B cells [1] = details: mice; cited from earlier work
# B cells [2] = details: rats; cited from earlier work
# [3] = High Affinity, no flares, induction phase
# [4] = High affinity population, baseline (pre-treatment)
# [5] = High affinity population, baseline to Week 16
# [6] = ITT population, baseline (pre-treatment)
# [7] = ITT population, baseline to Week 16
# [8] = ITT, no flares, induction phase
# [9] = Phase II/III, before renal flare
# [10] = active treatment, pre vs post renal flare
# [11] = patients with documented renal flare (n=37), before flare
substance,measurement,setting,value
"abetimus sodium (sense GTGTGTGTGTGTGTGTGTGT; antisense CACACACACACACACACACA; sense: DNA, backbone not given here; antisense: DNA, backbone and methylation of C not given here; four deoxynucleotide duplexes bound to triethylene glycol valency platform) [LJP 394, tetravalent conjugate: four (CA)10.(TG)10 double-stranded 20-mer oligonucleotides on a triethylene glycol based valency platform]",Difference in Role Emotional change scores between treatment groups,SLE patients; [3],13.2
same,Difference in Social Functioning change scores between treatment groups,SLE patients; [3],5.5
same,SF-36 MCS Baseline Mean,SLE patients; [4],48.21
same,SF-36 PCS Baseline Mean,SLE patients; [4],41.13
same,"Difference between MCS change scores, active vs placebo",SLE patients; [5],2.2 points
same,"Difference in Role Emotional change scores, active vs placebo",SLE patients; [5],15.9 points
same,"Difference in Role Physical change scores, active vs placebo",SLE patients; [5],8.5 points
same,"Difference in Social Functioning change scores, active vs placebo",SLE patients; [5],5.0
same,Magnitude of differences between active and placebo on Role Physical,SLE patients; [5],4.4 points
same,Mean change in SF-36 Social Functioning score,SLE patients; [5],4.9 points
same,SF-36 MCS Mean % Change,SLE patients; [5],6.10%
same,SF-36 MCS Mean Change,SLE patients; [5],1.49
same,SF-36 PCS Mean % Change,SLE patients; [5],7.17%
same,SF-36 PCS Mean Change,SLE patients; [5],1.88
same,Patients reporting improvements in Role Emotional scores greater than the MCID,"SLE patients; ITT population, Week 16",24.2%
same,Baseline Role Emotional score,SLE patients; [6],69.1
same,SF-36 MCS Baseline Mean,SLE patients; [6],48.9 and 48.91
same,SF-36 PCS Baseline Mean,SLE patients; [6],41.0 and 41.03
same,"Difference in MCS change, active vs placebo",SLE patients; [7],2.1
same,"Difference in Role Emotional change scores, active vs placebo",SLE patients; [7],15.8 points
same,"Difference in Role Physical change scores, active vs placebo",SLE patients; [7],8.9 points
same,SF-36 MCS Mean % Change,SLE patients; [7],5.53%
same,SF-36 MCS Mean Change,SLE patients; [7],1.29
same,SF-36 PCS Mean % Change,SLE patients; [7],6.70%
same,SF-36 PCS Mean Change,SLE patients; [7],1.76
same,Difference in Social Functioning change scores between treatment groups,"SLE patients; ITT, induction phase (16 weeks)",4.7
same,Difference in Role Emotional change scores between treatment groups,"SLE patients; ITT, no HDCC, induction phase",9.7
same,Difference in Social Functioning change scores between treatment groups,"SLE patients; ITT, no HDCC, induction phase",5.9
same,Difference in Role Emotional change scores between treatment groups,SLE patients; [8],12.3
same,Difference in Social Functioning change scores between treatment groups,SLE patients; [8],5.0
same,Mean SF-36 domain scores after renal flare compared with placebo,"SLE patients; Phase II/III, after renal flare",remained better than placebo patients; also recorded: higher for LJP394-treated patients in all domains
same,Mean SF-36 Pain domain score before renal flare,SLE patients; [9],60.13
same,Mean SF-36 domain scores before renal flare compared with placebo,SLE patients; [9],better scores than placebo in all domains except pain
same,Mean SF-36 domain scores before renal flare compared with placebo,"SLE patients; Phase II/III, before renal flare, listed as LJP394",higher for LJP394-treated patients in all domains except pain
same,SF-36 domain score changes pre/post renal flare compared with placebo,"SLE patients; Phase II/III, pre vs post renal flare",stabilization or improvement in all but one domain
same,SF-36 domain score changes pre/post renal flare compared with placebo,"SLE patients; Phase II/III, pre vs post renal flare, listed as LJP394",all eight domains were more favorable; also recorded: all 8 domains were more favorable
same,Change in Bodily Pain domain score before to after documented renal flare,SLE patients; [10],12.3 points
same,Change in Role Emotional domain score before to after documented renal flare,SLE patients; [10],2.1
same,Change in Social Functioning domain score before to after documented renal flare,SLE patients; [10],2.3
same,Change in Vitality domain score before to after documented renal flare,SLE patients; [10],4.1
same,Longitudinal Role Emotional and MCS scores vs placebo,SLE patients; after the 16 week induction phase,marked improvement
same,Longitudinal Role Emotional and MCS scores vs placebo,SLE patients; by week 36 of treatment,comparable between the two groups
same,"Role Emotional scores difference, LJP 394 versus placebo",SLE patients; patients with data pre- and post-renal flares,20.2 points
same,Pre-flare difference between treatment groups in MCS summary score,SLE patients; [11],4.1 points
same,Pre-flare difference between treatment groups in Role Emotional score,SLE patients; [11],15.0 points
same,Pre-flare difference between treatment groups in Vitality score,SLE patients; [11],9.5 points
same,Post-flare difference in Role Emotional scores favoring active treatment,"SLE patients; patients with documented renal flare, post-flare",37.7 points
same,# Patients with sustained reduction,anti-dsDNA antibodies; Phase III,80
same,"# Patients, Other (no sustained reduction)",anti-dsDNA antibodies; Phase III,65
same,Frequency of patients with sustained reductions in anti-dsDNA antibodies compared with placebo,anti-dsDNA antibodies,higher frequency; also recorded: Four times as many; also recorded: Twice as many; also recorded: more frequent
same,Frequency of patients with sustained reductions in anti-dsDNA antibodies compared with placebo,anti-dsDNA antibodies; listed as LJP394,Twice as many
same,Change in anti-dsDNA antibodies from baseline compared with placebo,"anti-dsDNA antibodies; Phase III, p<0.0001",statistically significant decrease
same,Induction of antigen-specific B-cell tolerance,B cells [1],induce antigen-specific B-cell tolerance
same,Induction of antigen-specific B-cell tolerance,B cells [2],induce antigen-specific B-cell tolerance
